Assay results from patent US11180496B2 (Daewoong Pharmaceutical Co., Ltd., priority 2017, dated 2021).

Key:
BTK = biological target: T1, BTK (Homo sapiens, UniProt Q06187); test: BTK inhibitory activity, ADP-Glo + BTK Kinase enzyme system kit (Promega); type: biochemical; conditions: BTK enzyme 1 ng/uL, ATP 10 uM, 15 min preincubation, luminescence, duplicate
T1 construct: purchased Promega
Description: (§1) The inhibitory activity against BTK and ITK of the compounds prepared in Examples above were measured as follows.
(§2) The inhibitory activity against BTK was evaluated using ‘ADP-Glo™+BTK Kinase enzyme system’ kit from Promega. […] 5 uL of substrate and 5 uL of ATP prepared at a final concentration of 10 uM were added to all wells of the plate after completion of the reaction, and allowed to react at 30° C. for 1 hour. All wells of the plate after completion of the reaction were treated with 25 uL of ADP-Glo™ reagent and reacted at 30° C. for 40 minutes. Then, 50 uL of the kinase detection buffer was applied to all wells of the plate, and then the light was blocked and reacted at 30° C. for 30 minutes. For the plate for which all reactions were completed, the luminescence was measured and the results were calculated. The evaluation was performed in duplicate. The respective values of negative and positive controls, depending on whether the enzymes were added without treatment of the compound, were determined, and IC50 was calculated based on the values.

ITK = biological target: T2, ITK (Homo sapiens, UniProt Q08881); test: ITK inhibitory activity, ADP-Glo + ITK Kinase enzyme system kit (Promega); type: biochemical; conditions: ITK enzyme 0.4 ng/uL, ATP 25 uM, 15 min preincubation, luminescence, duplicate
T2 construct: purchased Promega
T2 sequence (Q08881 1-620): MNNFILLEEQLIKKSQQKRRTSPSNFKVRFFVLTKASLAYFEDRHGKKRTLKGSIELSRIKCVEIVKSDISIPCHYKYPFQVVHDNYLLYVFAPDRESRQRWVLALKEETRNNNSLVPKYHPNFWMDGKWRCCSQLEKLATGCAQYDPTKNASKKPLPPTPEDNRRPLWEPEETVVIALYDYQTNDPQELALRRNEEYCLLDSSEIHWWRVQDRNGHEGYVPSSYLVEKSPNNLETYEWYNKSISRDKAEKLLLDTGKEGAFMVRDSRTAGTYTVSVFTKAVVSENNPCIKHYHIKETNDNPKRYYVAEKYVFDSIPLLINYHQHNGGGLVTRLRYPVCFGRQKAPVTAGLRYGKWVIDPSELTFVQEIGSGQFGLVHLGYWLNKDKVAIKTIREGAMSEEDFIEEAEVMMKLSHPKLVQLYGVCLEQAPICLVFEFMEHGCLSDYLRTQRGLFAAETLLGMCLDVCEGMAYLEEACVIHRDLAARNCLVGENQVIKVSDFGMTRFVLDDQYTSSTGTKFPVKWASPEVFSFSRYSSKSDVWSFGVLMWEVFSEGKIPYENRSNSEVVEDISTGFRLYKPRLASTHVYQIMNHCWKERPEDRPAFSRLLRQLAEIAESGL
Description: as §1
as §2, with “ITK” for “BTK”, “‘ADP-Glo™+ITK” for “‘ADP-Glo™+BTK”, “25” for “10”

T1 sequence (Q06187 whole entry): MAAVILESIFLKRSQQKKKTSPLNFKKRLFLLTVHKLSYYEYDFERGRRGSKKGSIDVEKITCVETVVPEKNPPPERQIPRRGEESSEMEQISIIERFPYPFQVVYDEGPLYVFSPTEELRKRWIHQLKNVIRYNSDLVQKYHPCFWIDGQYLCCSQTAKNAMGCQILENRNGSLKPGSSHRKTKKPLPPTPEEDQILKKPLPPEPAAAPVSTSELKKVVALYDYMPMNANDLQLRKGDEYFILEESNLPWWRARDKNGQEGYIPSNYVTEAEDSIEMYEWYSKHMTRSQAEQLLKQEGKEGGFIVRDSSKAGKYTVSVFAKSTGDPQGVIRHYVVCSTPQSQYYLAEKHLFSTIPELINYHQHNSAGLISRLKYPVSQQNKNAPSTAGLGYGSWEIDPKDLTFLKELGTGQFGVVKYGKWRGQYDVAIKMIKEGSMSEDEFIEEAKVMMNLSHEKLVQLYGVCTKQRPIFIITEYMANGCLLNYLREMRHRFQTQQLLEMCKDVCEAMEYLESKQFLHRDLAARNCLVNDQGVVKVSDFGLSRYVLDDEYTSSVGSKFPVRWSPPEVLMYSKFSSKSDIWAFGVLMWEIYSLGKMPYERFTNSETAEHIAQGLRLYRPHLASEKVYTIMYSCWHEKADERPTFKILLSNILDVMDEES

SMILES	IC50 (BTK) [nM]	IC50 (ITK) [nM]
C=CC(=O)N1CCC(n2nc(-c3ccc(Oc4ccccc4)cc3)c3c(N)nccc32)CC1 [Example 3, 1-(4-(4-amino-3-(4-phenoxyphenyl)-1H-pyrazolo[4,3-c]pyridin-1-yl)piperidin-1-yl)prop-2-en-1-one]	2.7	> 1000
C=CC(=O)N1CCCC(n2nc(-c3ccc(Oc4ccccc4)cc3)c3c(N)ncc(I)c32)C1 (centres unmarked) [Example 5, 1-(3-(4-amino-7-iodo-3-(4-phenoxyphenyl)-1H-pyrazolo[4,3-c]pyridin-1-yl)piperidin-1-yl)prop-2-en-1-one]	6.7	19.5
C=CC(=O)N1CC2CC1C(n1nc(-c3ccc(Oc4ccccc4)cc3)c3c(N)ncc(-c4cnn(C)c4)c31)C2 (centres unmarked) [Example 8, 1-(6-(4-amino-7-(1-methyl-1H-pyrazol-4-yl)-3-(4-phenoxyphenyl)-1H-pyrazolo[4,3-c]pyridin-1-yl)-2-azabicyclo[2.2.1]heptan-2-yl)prop-2-en-1-one]	7.3	> 500
C=CC(=O)N1CCC(n2nc(-c3ccc(Oc4ccccc4)cc3)c3c(N)ncc(I)c32)CC1 [Example 12, 1-(4-(4-amino-7-iodo-3-(4-phenoxyphenyl)-1H-pyrazolo[4,3-c]pyridin-1-yl)piperidin-1-yl)prop-2-en-1-one]	7.7	> 1000
C=CC(=O)N1CCC(n2nc(-c3ccc(Oc4ccccc4)cc3)c3c(N)ncc(-c4cnn(C)c4)c32)CC1 [Example 13, 1-(4-(4-amino-7-(1-methyl-1H-pyrazol-4-yl)-3-(4-phenoxyphenyl)-1H-pyrazolo[4,3-c]pyridin-1-yl)piperidin-1-yl)prop-2-en-1-one]	5.1	> 1000
C=CC(=O)N1CCC(n2nc(-c3ccc(Oc4ccccc4)cc3)c3c(N)ncc(/C=C/c4ccc(F)cc4)c32)CC1 [Example 15, (E)-1-(4-(4-amino-7-(4-fluorostyryl)-3-(4-phenoxyphenyl)-1H-pyrazolo[4,3-c]pyridin-1-yl)piperidin-1-yl)prop-2-en-1-one]	3.7	> 500
C=CC(=O)N1CCC[C@@H](n2nc(-c3ccc(Oc4ccccc4)cc3)c3c(N)ncc(I)c32)C1 [Example 16, (R)-1-(3-(4-amino-7-iodo-3-(4-phenoxyphenyl)-1H-pyrazolo[4,3-c]pyridin-1-yl)piperidin-1-yl)prop-2-en-1-one]	1	2.7
C=CC(=O)N1CCC[C@@H](n2nc(-c3ccc(C(=O)Nc4ccccn4)cc3)c3c(N)ncc(Br)c32)C1 [Example 20, (R)-4-(1-(1-acryloylpiperidin-3-yl)-4-amino-7-bromo-1H-pyrazolo[4,3-c]pyridin-3-yl)-N-(pyridin-2-yl)benzamide]	15.2	> 1000
C=CC(=O)N1CCC[C@@H](n2nc(-c3ccc(C(=O)Nc4ccccc4)cc3)c3c(N)nccc32)C1 [Example 22, (R)-4-(1-(1-acryloylpiperidin-3-yl)-4-amino-1H-pyrazolo[4,3-c]pyridin-3-yl)-N-phenyl benzamide]	2.5	131

Further compounds by falling IC50 (BTK), results first:

IC50 (BTK) [nM]	IC50 (ITK) [nM]	SMILES
29.9	288	C=CC(=O)N1CCCC(n2nc(-c3ccc(Oc4ccccc4)cc3)c3c(N)ncc(Cc4ccccc4)c32)C1 (centres unmarked) [Example 6, 1-(3-(4-amino-7-benzyl-3-(4-phenoxyphenyl)-1H-pyrazolo[4,3-c]pyridin-1-yl)piperidin-1-yl)prop-2-en-1-one]
11.4	224	C=CC(=O)N1CCCC(n2nc(-c3ccc(Oc4ccccc4)cc3)c3c(N)ncc(-c4ccccc4)c32)C1 (centres unmarked) [Example 11, 1-(3-(4-amino-3-(4-phenoxyphenyl)-7-phenyl-1H-pyrazolo[4,3-c]pyridin-1-yl)piperidin-1-yl)prop-2-en-1-one]
10.7	> 1000	C=CC(=O)N1CCC[C@@H](n2nc(-c3ccc(C(=O)Nc4ccccn4)cc3)c3c(N)ncc(I)c32)C1 [Example 21, (R)-4-(1-(1-acryloylpiperidin-3-yl)-4-amino-7-iodo-1H-pyrazolo[4,3-c]pyridin-3-yl)-N-(pyridin-2-yl)benzamide]
5.5	277	C#CC(=O)N1CCC(n2nc(-c3ccc(Oc4ccccc4)cc3)c3c(N)nccc32)CC1 [Example 4, 1-(4-(4-amino-3-(4-phenoxyphenyl)-1H-pyrazolo[4,3-c]pyridin-1-yl)piperidin-1-yl)prop-2-yn-1-one]
4.1	38.4	C=CC(=O)N1CCCC(n2nc(-c3ccc(Oc4ccccc4)cc3)c3c(N)ncc(/C=C/c4ccc(F)cc4)c32)C1 (centres unmarked) [Example 14, (E)-1-(3-(4-amino-7-(4-fluorostyryl)-3-(4-phenoxyphenyl)-1H-pyrazolo[4,3-c]pyridin-1-yl)piperidin-1-yl)prop-2-en-1-one]
3.5	15.7	C#CC(=O)N1CCCC(n2nc(-c3ccc(Oc4ccccc4)cc3)c3c(N)nccc32)C1 (centres unmarked) [Example 2, 1-(3-(4-amino-3-(4-phenoxyphenyl)-1H-pyrazolo[4,3-c]pyridin-1-yl)piperidin-1-yl)prop-2-yn-1-one]
3	36.4	C=CC(=O)N1CCCC(n2nc(-c3ccc(Oc4ccccc4)cc3)c3c(N)ncc(-c4cnn(C)c4)c32)C1 (centres unmarked) [Example 7, 1-(3-(4-amino-7-(1-methyl-1H-pyrazol-4-yl)-3-(4-phenoxyphenyl)-1H-pyrazolo[4,3-c]pyridin-1-yl)piperidin-1-yl)prop-2-en-1-one]
2.1	10.8	C=CC(=O)N1CCCC(n2nc(-c3ccc(Oc4ccccc4)cc3)c3c(N)ncc(Br)c32)C1 (centres unmarked) [Example 10, 1-(3-(4-amino-7-bromo-3-(4-phenoxyphenyl)-1H-pyrazolo[4,3-c]pyridin-1-yl)piperidin-1-yl)prop-2-en-1-one]
1.7	7.8	C=CC(=O)N1CCC[C@@H](n2nc(-c3ccc(C(=O)Nc4ccccn4)cc3)c3c(N)ncc(Cl)c32)C1 [Example 19, (R)-4-(1-(1-acryloylpiperidin-3-yl)-4-amino-7-chloro-1H-pyrazolo[4,3-c]pyridin-3-yl)-N-(pyridin-2-yl)benzamide]
1.5	11.3	C=CC(=O)N1CCCC(n2nc(-c3ccc(Oc4ccccc4)cc3)c3c(N)ncc(Cl)c32)C1 (centres unmarked) [Example 9, 1-(3-(4-amino-7-chloro-3-(4-phenoxyphenyl)-1H-pyrazolo[4,3-c]pyridin-1-yl)piperidin-1-yl)prop-2-en-1-one]
1.4	37.7	C=CC(=O)N1CCCC(n2nc(-c3ccc(Oc4ccccc4)cc3)c3c(N)nccc32)C1 (centres unmarked) [Example 1, 1-(3-(4-amino-3-(4-phenoxyphenyl)-1H-pyrazolo[4,3-c]pyridin-1-yl)piperidin-1-yl)prop-2-en-1-one]
1.2	48	C=CC(=O)N1CCC[C@@H](n2nc(-c3ccc(C(=O)Nc4ccccc4)cc3)c3c(N)ncc(Cl)c32)C1 [Example 23, (R)-4-(1-(1-acryloylpiperidin-3-yl)-4-amino-7-chloro-1H-pyrazolo[4,3-c]pyridin-3-yl)-N-phenyl benzamide]
1	26.4	C=CC(=O)N1CCC[C@@H](n2nc(-c3ccc(C(=O)Nc4ccccn4)cc3)c3c(N)nccc32)C1 [Example 18, (R)-4-(1-(1-acryloylpiperidin-3-yl)-4-amino-1H-pyrazolo[4,3-c]pyridin-3-yl)-N-(pyridin-2-yl)benzamide]
